Test results as given in ChEMBL document CHEMBL5634115, “Exploring novel anticancer pyrazole benzenesulfonamides featuring tail approach strategy as carbonic anhydrase inhibitors” (Eur J Med Chem, 2023).

Key:
Assay in all cases: cells
[1] = tested on: NCI-H23; type: functional; conditions: Homo sapiens, time 48 hrs
Description: Growth inhibition of human NCI-H23 cells measured after 48 hrs by sulforhodamine B assay

[2] = tested on: NCI-H322M; type: functional; conditions: Homo sapiens, time 48 hrs
Description: Growth inhibition of human NCI-H322M cells measured after 48 hrs by sulforhodamine B assay

[3] = tested on: NCI-H460; type: functional; conditions: Homo sapiens, time 48 hrs
Description: Growth inhibition of human NCI-H460 cells measured after 48 hrs by sulforhodamine B assay

[4] = tested on: HCT-15; type: functional; conditions: Homo sapiens, time 48 hrs
Description: Growth inhibition of human HCT-15 cells measured after 48 hrs by sulforhodamine B assay

[5] = tested on: SF-539; type: functional; conditions: Homo sapiens, time 48 hrs
Description: Growth inhibition of human SF-539 cells measured after 48 hrs by sulforhodamine B assay

[6] = tested on: SNB-75; type: functional; conditions: Homo sapiens, time 48 hrs
Description: Growth inhibition of human SNB-75 cells measured after 48 hrs by sulforhodamine B assay

[7] = tested on: U-251; type: functional; conditions: Homo sapiens, time 48 hrs
Description: Growth inhibition of human U-251 cells measured after 48 hrs by sulforhodamine B assay

[8] = tested on: Malme-3M; type: functional; conditions: Homo sapiens, time 48 hrs
[9] = tested on: M14; type: functional; conditions: Homo sapiens, time 48 hrs
Description: Growth inhibition of human M14 cells measured after 48 hrs by sulforhodamine B assay

[10] = tested on: UACC-257; type: functional; conditions: Homo sapiens, time 48 hrs
Description: Growth inhibition of human UACC-257 cells measured after 48 hrs by sulforhodamine B assay

[11] = tested on: ACHN; type: functional; conditions: Homo sapiens, time 48 hrs
Description: Growth inhibition of human ACHN cells measured after 48 hrs by sulforhodamine B assay

[12] = tested on: CAKI-1; type: functional; conditions: Homo sapiens, time 48 hrs
Description: Growth inhibition of human CAKI-1 cells measured after 48 hrs by sulforhodamine B assay

[13] = tested on: MCF7; type: functional; conditions: Homo sapiens, time 48 hrs
Description: Growth inhibition of human MCF7 cells measured after 48 hrs by sulforhodamine B assay

[14] = tested on: T47D; type: functional; conditions: Homo sapiens, time 48 hrs
Description: Growth inhibition of human T47D cells measured after 48 hrs by sulforhodamine B assay

[15] = tested on: MDA-MB-468; type: functional; conditions: Homo sapiens, time 48 hrs
Description: Growth inhibition of human MDA-MB-468 cells measured after 48 hrs by sulforhodamine B assay

[16] = tested on: CCRF-CEM; type: functional; conditions: Homo sapiens, time 48 hrs
Description: Cytostatic activity against human CCRF-CEM cells assessed as total growth inhibition measured after 48 hrs by sulforhodamine B assay

[17] = tested on: HL-60(TB); type: functional; conditions: Homo sapiens, time 48 hrs
Description: Cytostatic activity against human HL-60(TB) cells assessed as total growth inhibition measured after 48 hrs by sulforhodamine B assay

[18] = tested on: RPMI-8226; type: functional; conditions: Homo sapiens, time 48 hrs
Description: Cytostatic activity against human RPMI-8226 cells assessed as total growth inhibition measured after 48 hrs by sulforhodamine B assay

[19] = tested on: HCT-15; type: functional; conditions: Homo sapiens, time 48 hrs; remark: listed apart in the source
Description: Cytostatic activity against human HCT-15 cells assessed as total growth inhibition measured after 48 hrs by sulforhodamine B assay

[20] = tested on: SW-620; type: functional; conditions: Homo sapiens, time 48 hrs
Description: Cytostatic activity against human SW620 cells assessed as total growth inhibition measured after 48 hrs by sulforhodamine B assay

[21] = tested on: SF-295; type: functional; conditions: Homo sapiens, time 48 hrs
Description: Cytostatic activity against human SF-295 cells assessed as total growth inhibition measured after 48 hrs by sulforhodamine B assay

[22] = tested on: SNB-19; type: functional; conditions: Homo sapiens, time 48 hrs
Description: Cytostatic activity against human SNB-19 cells assessed as total growth inhibition measured after 48 hrs by sulforhodamine B assay

[23] = tested on: U-251; type: functional; conditions: Homo sapiens, time 48 hrs; remark: listed apart in the source
Description: Cytostatic activity against human U-251 cells assessed as total growth inhibition measured after 48 hrs by sulforhodamine B assay

[24] = tested on: Malme-3M; type: functional; conditions: Homo sapiens, time 48 hrs; remark: listed apart in the source
Description: Cytostatic activity against human Malme-3M cells assessed as total growth inhibition measured after 48 hrs by sulforhodamine B assay

[25] = tested on: UACC-257; type: functional; conditions: Homo sapiens, time 48 hrs; remark: listed apart in the source
Description: Cytostatic activity against human UACC-257 cells assessed as total growth inhibition measured after 48 hrs by sulforhodamine B assay

[26] = tested on: IGROV-1; type: functional; conditions: Homo sapiens, time 48 hrs
Description: Cytostatic activity against human IGROV-1 cells assessed as total growth inhibition measured after 48 hrs by sulforhodamine B assay

[27] = tested on: OVCAR-4; type: functional; conditions: Homo sapiens, time 48 hrs
Description: Cytostatic activity against human OVCAR-4 cells assessed as total growth inhibition measured after 48 hrs by sulforhodamine B assay

[28] = tested on: OVCAR-8; type: functional; conditions: Homo sapiens, time 48 hrs
Description: Cytostatic activity against human OVCAR-8 cells assessed as total growth inhibition measured after 48 hrs by sulforhodamine B assay

[29] = tested on: NCI/ADR-RES; type: functional; conditions: Homo sapiens, time 48 hrs
Description: Cytostatic activity against human NCI/ADR-RES cells assessed as total growth inhibition measured after 48 hrs by sulforhodamine B assay

[30] = tested on: A498; type: functional; conditions: Homo sapiens, time 48 hrs
Description: Cytostatic activity against human A498 cells assessed as total growth inhibition measured after 48 hrs by sulforhodamine B assay

[31] = tested on: RXF 393; type: functional; conditions: Homo sapiens, time 48 hrs
Description: Cytostatic activity against human RXF 393 cells assessed as total growth inhibition measured after 48 hrs by sulforhodamine B assay

[32] = tested on: TK-10; type: functional; conditions: Homo sapiens, time 48 hrs
Description: Cytostatic activity against human TK-10 cells assessed as total growth inhibition measured after 48 hrs by sulforhodamine B assay

[33] = tested on: PC-3; type: functional; conditions: Homo sapiens, time 48 hrs
Description: Cytostatic activity against human PC-3 cells assessed as total growth inhibition measured after 48 hrs by sulforhodamine B assay

[34] = tested on: MDA-MB-231; type: functional; conditions: Homo sapiens, time 48 hrs
Description: Cytostatic activity against human MDA-MB-231 cells assessed as total growth inhibition measured after 48 hrs by sulforhodamine B assay

[35] = tested on: T47D; type: functional; conditions: Homo sapiens, time 48 hrs; remark: listed apart in the source
Description: Cytostatic activity against human T47D cells assessed as total growth inhibition measured after 48 hrs by sulforhodamine B assay

[36] = tested on: NCI-H23; conditions: Homo sapiens, NCI-H23, 48 h, read-out: LC50
Description: Cytotoxicity activity against human NCI-H23 cells assessed as reduction in cell growth measured after 48 hrs by sulforhodamine B assay

[37] = tested on: HCT-116; conditions: Homo sapiens, HCT-116, 48 h, read-out: LC50
Description: Cytotoxicity activity against human HCT-116 cells assessed as reduction in cell growth measured after 48 hrs by sulforhodamine B assay

[38] = tested on: HCT-15; conditions: Homo sapiens, HCT-15, 48 h, read-out: LC50
Description: Cytotoxicity activity against human HCT-15 cells assessed as reduction in cell growth measured after 48 hrs by sulforhodamine B assay

[39] = tested on: SF-268; conditions: Homo sapiens, SF-268, 48 h, read-out: LC50
Description: Cytotoxicity activity against human SF-268 cells assessed as reduction in cell growth measured after 48 hrs by sulforhodamine B assay

[40] = tested on: SF-295; conditions: Homo sapiens, SF-295, 48 h, read-out: LC50
Description: Cytotoxicity activity against human SF-295 cells assessed as reduction in cell growth measured after 48 hrs by sulforhodamine B assay

[41] = tested on: SNB-75; conditions: Homo sapiens, SNB-75, 48 h, read-out: LC50
Description: Cytotoxicity activity against human SNB-75 cells assessed as reduction in cell growth measured after 48 hrs by sulforhodamine B assay

[42] = tested on: M14; conditions: Homo sapiens, M14, 48 h, read-out: LC50
Description: Cytotoxicity activity against human M14 cells assessed as reduction in cell growth measured after 48 hrs by sulforhodamine B assay

[43] = tested on: MDA-MB-435; conditions: Homo sapiens, MDA-MB-435, 48 h, read-out: LC50
Description: Cytotoxicity activity against human MDA-MB-435 cells assessed as reduction in cell growth measured after 48 hrs by sulforhodamine B assay

[44] = tested on: SK-MEL-5; conditions: Homo sapiens, SK-MEL-5, 48 h, read-out: LC50
Description: Cytotoxicity activity against human SK-MEL-5 cells assessed as reduction in cell growth measured after 48 hrs by sulforhodamine B assay

[45] = tested on: UACC-257; conditions: Homo sapiens, UACC-257, 48 h, read-out: LC50
Description: Cytotoxicity activity against human UACC-257 cells assessed as reduction in cell growth measured after 48 hrs by sulforhodamine B assay

[46] = tested on: IGROV-1; conditions: Homo sapiens, IGROV-1, 48 h, read-out: LC50
Description: Cytotoxicity activity against human IGROV-1 cells assessed as reduction in cell growth measured after 48 hrs by sulforhodamine B assay

[47] = tested on: OVCAR-4; conditions: Homo sapiens, OVCAR-4, 48 h, read-out: LC50
Description: Cytotoxicity activity against human OVCAR-4 cells assessed as reduction in cell growth measured after 48 hrs by sulforhodamine B assay

[48] = tested on: OVCAR-8; conditions: Homo sapiens, OVCAR-8, 48 h, read-out: LC50
Description: Cytotoxicity activity against human OVCAR-8 cells assessed as reduction in cell growth measured after 48 hrs by sulforhodamine B assay

[49] = tested on: PC-3; conditions: Homo sapiens, PC-3, 48 h, read-out: LC50
Description: Cytotoxicity activity against human PC-3 cells assessed as reduction in cell growth measured after 48 hrs by sulforhodamine B assay

[50] = tested on: DU-145; conditions: Homo sapiens, DU-145, 48 h, read-out: LC50
Description: Cytotoxicity activity against human DU-145 cells assessed as reduction in cell growth measured after 48 hrs by sulforhodamine B assay

[51] = tested on: MDA-MB-468; conditions: Homo sapiens, MDA-MB-468, 48 h, read-out: LC50
Description: Cytotoxicity activity against human MDA-MB-468 cells assessed as reduction in cell growth measured after 48 hrs by sulforhodamine B assay

In the case of CCOC(=O)c1ccc(N/N=C/c2cn(-c3ccc(S(N)(=O)=O)cc3)nc2-c2ccc(C)cc2)cc1, the GI50 [1] is reported as 3.26 µM, the GI50 [2] is reported as 5.38 µM and the GI50 [3] is reported as 2.43 µM. It also gave a GI50 [4] of 1.87 µM, a GI50 [5] of 2.55 µM and a GI50 [6] of 10.1 µM. It also gave a GI50 [7] of 4.23 µM, a GI50 [8] of 7.32 µM and a GI50 [9] of 1.75 µM. It also gave a GI50 [10] of 13.2 µM, a GI50 [11] of 3.04 µM and a GI50 [12] of 2.07 µM. It also gave a GI50 [13] of 2.44 µM, a GI50 [14] of 3.89 µM and a GI50 [15] of 3.51 µM. It also gave a TGI [16] of 57.4 µM, a TGI [17] of 14.1 µM and a TGI [18] of 3.24 µM. The TGI [19] was 4.23 µM, the TGI [20] was 15.6 µM and the TGI [21] was 24.8 µM. For the same compound, the TGI [22] was 28.1 µM, the TGI [23] was greater than 100 µM and the TGI [24] was 23.4 µM. It also gave a TGI [25] of 37 µM, a TGI [26] of 25.9 µM and a TGI [27] of 71.5 µM. It also gave a TGI [28] greater than 100 µM, a TGI [29] of 10.9 µM and a TGI [30] of 31.8 µM. The TGI [31] was 4.19 µM, the TGI [32] was greater than 100 µM and the TGI [33] was 38.1 µM. It also gave a TGI [34] of 9.13 µM, a TGI [35] greater than 100 µM and a CC50 [36] of 94.5 µM. The CC50 [37] was 54.2 µM, the CC50 [38] was 9.53 µM and the CC50 [39] was greater than 100 µM. The CC50 [40] was 74.3 µM, the CC50 [41] was greater than 100 µM and the CC50 [42] was 7.31 µM. The CC50 [43] was 70.2 µM, the CC50 [44] was 40.2 µM and the CC50 [45] was greater than 100 µM. It also gave a CC50 [46] greater than 100 µM, a CC50 [47] greater than 100 µM and a CC50 [48] greater than 100 µM. For the same compound, the CC50 [49] was greater than 100 µM, the CC50 [50] was greater than 100 µM and the CC50 [51] was 99.3 µM.
